Test results published in ChEMBL document CHEMBL5537171, “Design, Synthesis, and Biological Evaluation of Potent and Selective PROTAC Degraders of Oncogenic KRASG12D” (J Med Chem, 2024).
Calls of active or inactive are those of the source. No cut-off for these calls is given here.

Experiments:
[1] = Toxicity in BALB/c nude mouse xenografted with human ASPC1 cells assessed as drug tolerance at 50 mg/kg, sc for 22 days; assay type: organism-based; conditions: in vivo, 528 h, time 22 day
AGS = experiment: Antiproliferative activity against human AGS cells harboring KRAS G12D mutant assessed as inhibition of cell viability incubated for 5 days by Cell Titer Glo assay; assay type: functional, cell-based; conditions: 120 h
[2] = tested on: von Hippel-Lindau disease tumor suppressor/GTPase KRas (Homo sapiens), P01116+P40337 [G12D]; experiment: PROTAC activity at VHL/KRAS G12D mutant in human ASPC1 cells assessed as induction protein degradation at 1 uM measured for 2 to 24 hrs by Western blot analysis; assay type: cell-based; conditions: time 2-24 hrs
[3] = tested on: von Hippel-Lindau disease tumor suppressor/GTPase KRas (Homo sapiens), P01116+P40337 [G13D]; experiment: PROTAC activity at VHL/KRAS G13D mutant in human HCT-116 cells assessed as induction of protein degradation at 0.1 uM incubated for 24 hrs by Western blot analysis; assay type: cell-based
NCI-H358 = experiment: Antiproliferative activity against human NCI-H358 cells harboring KRAS G12C mutant assessed as inhibition of cell viability incubated for 5 days by Cell Titer Glo assay; assay type: functional, cell-based; conditions: NCI-H358, 120 h
[4] = tested on: von Hippel-Lindau disease tumor suppressor/GTPase KRas (Homo sapiens), P01116+P40337 [G12D]; experiment: PROTAC activity at VHL/KRAS G12D mutant in human ASPC1 cells assessed as induction of protein degradation incubated for 24 hrs by Western blot analysis relative to control; assay type: cell-based
ASPC1 [5] = experiment: Downregulation of DUSP4 level in human ASPC1 cells at 0.1 uM incubated for 6 hrs by DIA-based proteomic analysis; assay type: functional, cell-based
[6] = Selectivity index, ratio of IC50 for human ASPC1 cells assessed as inhibition of cell viability incubated for 6 hrs followed by compound washout measured after 114 hrs by Cell Titer Glo assay to IC50 for human ASPC1 cells assessed as inhibition of cell viability incubated for 120 hrs of continuous treatment by Cell Titer Glo assay; assay type: functional
[7] = AUC (infinity) in BALB/c mouse at 10 mg/kg, sc by LC-MS/MS analysis; assay type: ADME, organism-based; conditions: in vivo
[8] = tested on: von Hippel-Lindau disease tumor suppressor/GTPase KRas (Homo sapiens), P01116+P40337 [G12D]; experiment: PROTAC activity at VHL/KRAS G12D mutant in human ASPC1 cells assessed as induction of protein degradation at 1 uM incubated for 6 hrs by Western blot analysis; assay type: cell-based
[9] = tested on: von Hippel-Lindau disease tumor suppressor/GTPase KRas (Homo sapiens), P01116+P40337 [G12D]; experiment: In vivo PROTAC activity at VHL/KRAS G12D mutant in human ASPC1 cells xenografted in BALB/c nude mouse assessed as induction of protein degradation at 50 mg/kg, sc measured for >24 hrs; assay type: functional, organism-based
[10] = AUClast in BALB/c mouse at 10 mg/kg, sc by LC-MS/MS analysis; assay type: ADME, organism-based; conditions: in vivo
[11] = tested on: von Hippel-Lindau disease tumor suppressor/GTPase KRas (Homo sapiens), P01116+P40337 [G12C]; experiment: PROTAC activity at VHL/KRAS G12C mutant in human NCI-H358 cells assessed as induction of protein degradation at 1 uM incubated for 24 hrs by Western blot analysis relative to control; assay type: cell-based
Homo sapiens = species on record: Homo sapiens; experiment: Binding affinity to His-tagged VHL/Elongin C/Elongin B/GST-tagged KRAS G12D mutant (unknown origin) incubated for 1 hr by HTRF assay
[12] = biological target: T1, von Hippel-Lindau disease tumor suppressor/GTPase KRas (Homo sapiens, UniProt P01116+P40337, G12D); experiment: PROTAC activity at VHL/KRAS G12D mutant in human ASPC1 cells assessed as inhibition of pERK level incubated for 24 hrs by Western blot analysis; assay type: cell-based
[13] = biological target: von Hippel-Lindau disease tumor suppressor/GTPase KRas (Homo sapiens) (UniProt P01116+P40337); experiment: PROTAC activity at VHL/KRAS in human NCI-H1975 cells assessed as induction of protein degradation at 0.1 uM incubated for 24 hrs by Western blot analysis; assay type: cell-based
[14] = tested on: von Hippel-Lindau disease tumor suppressor/GTPase KRas (Homo sapiens), P01116+P40337 [G12D]; experiment: PROTAC activity at VHL/KRAS G12D mutant in human ASPC1 cells assessed as induction of protein degradation at 1 uM pretreated with (2S,4R)-1-((S)-2-acetamido-3,3-dimethylbutanoyl)-4-hydroxy-N-((S)-1-(4-(4-methylthiazol-5-yl)phenyl)ethyl)pyrrolidine-2-carboxamide followed by compound treatment for 6 hrs by Western blot analysis; assay type: cell-based
[15] = tested on: von Hippel-Lindau disease tumor suppressor/GTPase KRas (Homo sapiens), P01116+P40337 [G12D]; experiment: PROTAC activity at VHL/KRAS G12D mutant in human SNU1 cells assessed as decrease in pERK level at 1 uM incubated upto 24 hrs by Western blot analysis; assay type: cell-based
ASPC1 [16] = experiment: Antiproliferative activity against human ASPC1 cells assessed as inhibition of cell viability incubated for 6 hrs followed by compound washout measured after 114 hrs by Cell Titer Glo assay; assay type: functional, cell-based
ASPC1 [17] = experiment: Antiproliferative activity against human ASPC1 cells harboring KRAS G12D mutant assessed as inhibition of cell viability incubated for 5 days by Cell Titer Glo assay; assay type: functional, cell-based; conditions: ASPC1, 120 h
[18] = Tmax in BALB/c mouse at 10 mg/kg, sc by LC-MS/MS analysis; assay type: ADME, organism-based; conditions: in vivo
ASPC1 [19] = experiment: Downregulation of KRT5 level in human ASPC1 cells at 0.1 uM incubated for 6 hrs by DIA-based proteomic analysis; assay type: functional, cell-based
ASPC1 [20] = experiment: Downregulation of KRT9 level in human ASPC1 cells at 0.1 uM incubated for 6 hrs by DIA-based proteomic analysis; assay type: functional, cell-based
[21] = Competitive binding affinity to His-tagged VHL/Elongin C/Elongin B (unknown origin) by FP assay; parameters: species or system Homo sapiens
ASPC1 [22] = experiment: Antitumor activity in human ASPC1 cells xenografted in BALB/c nude mouse assessed as tumor growth inhibition at 50 mg/kg, sc administered once daily for 22 days relative to control; assay type: functional; conditions: ASPC1, 528 h, time 22 day, read-out: TGI
ASPC1 [23] = experiment: Downregulation of KRT14 level in human ASPC1 cells at 0.1 uM incubated for 6 hrs by DIA-based proteomic analysis; assay type: functional, cell-based
[24] = tested on: von Hippel-Lindau disease tumor suppressor/GTPase KRas (Homo sapiens), P01116+P40337 [G12V]; experiment: PROTAC activity at VHL/KRAS G12V mutant in human SK-CO-1 cells assessed as induction of protein degradation at 0.1 uM incubated for 24 hrs by Western blot analysis; assay type: cell-based
[25] = MRT (infinity) in BALB/c mouse at 10 mg/kg, sc by LC-MS/MS analysis; assay type: ADME, organism-based; conditions: in vivo
[26] = biological target: T1, von Hippel-Lindau disease tumor suppressor/GTPase KRas; experiment: PROTAC activity at VHL/KRAS G12D mutant in human AGS cells assessed as induction of protein degradation incubated for 24 hrs by Western blot analysis; assay type: cell-based
[27] = biological target: T1, von Hippel-Lindau disease tumor suppressor/GTPase KRas; experiment: PROTAC activity at VHL/KRAS G12D mutant in human SNU1 cells assessed as induction of protein degradation incubated for 24 hrs by Western blot analysis; assay type: cell-based
[28] = Cmax in BALB/c mouse at 10 mg/kg, sc by LC-MS/MS analysis; assay type: ADME, organism-based; conditions: in vivo
[29] = Toxicity in BALB/c nude mouse xenografted with human ASPC1 cells assessed as body weight loss at 50 mg/kg, sc for 22 days; assay type: organism-based; conditions: in vivo, 528 h, time 22 day
ASPC1 [30] = experiment: Antiproliferative activity against human ASPC1 cells assessed as inhibition of cell viability incubated for 120 hrs of continuous treatment by Cell Titer Glo assay; assay type: functional, cell-based; conditions: ASPC1, 120 h
[31] = tested on: von Hippel-Lindau disease tumor suppressor/GTPase KRas (Homo sapiens), P01116+P40337 [G12D]; experiment: PROTAC activity at VHL/KRAS G12D mutant in human ASPC1 cells assessed as induction of protein degradation at 1 uM incubated for 24 hrs by Western blot analysis relative to control; assay type: cell-based

T1 sequence (P01116 whole entry G12D, stated change not applied): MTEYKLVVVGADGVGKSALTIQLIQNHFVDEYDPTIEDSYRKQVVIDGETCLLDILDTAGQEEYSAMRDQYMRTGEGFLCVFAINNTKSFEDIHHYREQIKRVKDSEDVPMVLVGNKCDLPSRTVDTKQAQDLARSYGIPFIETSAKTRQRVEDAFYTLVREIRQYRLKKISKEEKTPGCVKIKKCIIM
T1 sequence (P40337 whole entry, stated change not applied): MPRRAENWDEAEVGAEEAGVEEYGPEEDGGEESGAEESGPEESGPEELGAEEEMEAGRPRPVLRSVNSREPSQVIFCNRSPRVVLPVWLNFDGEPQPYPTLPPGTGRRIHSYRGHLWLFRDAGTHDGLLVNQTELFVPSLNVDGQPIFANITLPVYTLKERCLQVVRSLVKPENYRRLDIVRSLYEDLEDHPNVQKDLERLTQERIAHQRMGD
von Hippel-Lindau disease tumor suppressor/GTPase KRas (Homo sapiens), P01116+P40337 [G12D], sequence (P01116 whole entry G12D): as the sequence (P01116 whole entry G12D, stated change not applied) above
von Hippel-Lindau disease tumor suppressor/GTPase KRas (Homo sapiens), P01116+P40337 [G12D], sequence (P40337 whole entry partner): as the sequence (P40337 whole entry, stated change not applied) above
von Hippel-Lindau disease tumor suppressor/GTPase KRas (Homo sapiens), sequence (P01116 whole entry, looked up): as the sequence (P01116 whole entry G12D, stated change not applied) above, with D12G counted along it
von Hippel-Lindau disease tumor suppressor/GTPase KRas (Homo sapiens), sequence (P40337 whole entry, looked up): as the sequence (P40337 whole entry, stated change not applied) above

For `CCc1c(F)ccc2cc(O)cc(-c3ncc4c(N5C[C@H]6CC[C@@H](C5)N6)nc(OC[C@@H]5CCCN5CCCCOCC(=O)N[C@H](C(=O)N5C[C@H](O)C[C@H]5C(=O)N[C@@H](C)c5ccc(-c6scnc6C)cc5)C(C)(C)C)nc4c3F)c12`, the Activity [1] was “Non-Toxic”, the IC50 (AGS) was 31.4 nM and the Activity [2] was “Active”. The Activity [3] was “inactive”, the IC50 (NCI-H358) was greater than 9 µM and the Emax [4] was 98.9%. The Activity (ASPC1 [5]) was “Active”, the “Ratio IC50” value [6] was 3.78 and the AUC(0-inf) [7] was 5060 ng·h/mL. The Activity [8] was “Active”, the Activity [9] was “Active” and the AUC(0-t) [10] was 4470 ng·h/mL. For the same compound, the Activity [11] was 37.4%, the Activity (Homo sapiens) was “Active” and the IC50 [12] was 52.9 nM. For the same compound, the Activity [13] was “inactive”, the Activity [14] was “inactive” and the Activity [15] was “Active”. For the same compound, the IC50 (ASPC1 [16]) was 231 nM, the IC50 (ASPC1 [17]) was 60 nM and the Tmax [18] was 15 min. The Activity (ASPC1 [19]) was “Active”, the Activity (ASPC1 [20]) was “Active” and the IC50 [21] was 299 nM. For the same compound, the inhibition in vivo at 50 mg/kg (ASPC1 [22]) was 68.6%, the Activity (ASPC1 [23]) was “Active” and the Activity [24] was “inactive”. For the same compound, the MRT inf [25] was 9.33 h, the DC50 [26] was 7.49 nM and the DC50 [27] was 19.8 nM. For the same compound, the Cmax [28] was 2080 ng/mL, the Activity [29] was “Non-Toxic” and the IC50 (ASPC1 [30]) was 61.1 nM. For the same compound, the Activity [31] was 95.1%.
